From PMC4604124, “In Vitro Characterization of the Pharmacological Properties of the Anti-Cancer Chelator, Bp4eT, and Its Phase I Metabolites” (PLoS ONE, 2015)
“And” between values parts separate entries of the source, which are not always exact repeats. Equal values may be shown once.

Key:
caspase 8 = assay: Caspase activity, luminescent kit, caspase 8; format: cell-based, human; conditions: for kaspáza 8, raw signal / kaspáza 8, signal / viabilita: individual experiments by date; for kaspáza 8, raw signal, průměry / kaspáza 8, % kontroly / kaspáza 8, signal / viabilita, průměry: mean; for kaspáza 8, % kontroly / kaspáza 8, signal / viabilita / kaspáza 8, signal / viabilita, průměry: normalised to viability
Protocol: To assess the effect of the compounds on caspase activity, MCF-7 cells were incubated with 100 nM Bp4eT or its metabolites for 3, 24 or 72 h/37°C in 96-well plates, as described above. The cells were then lysed by adding 100 μL of cold lysis buffer (100 mM HEPES, 10 mM CHAPS, 10 mM D-L-dithiothreitol, pH 7.4) to 100 μL of medium in each well. Lysates were immediately frozen at -80°C. Thawed lysates were used to assess caspase activity using luminescent kits for caspases 3/7, 8 and 9 (Promega, Madison, WI, USA). The luminescence was measured using the Tecan Infinite 200M plate reader. Caspase activity in the experimental groups was corrected according to the cellular viability of each group and expressed as a percentage of activity of the untreated control (100%).

[1] = tested on: HCT116 human colorectal carcinoma cells; assay: MTT cytotoxicity assay, HCT116 cells; format: cell-based; conditions: for IC50: MTT
Protocol: For cytotoxicity experiments, cancer cells were seeded at a density of 5,000 (MCF-7), 10,000 (HL-60) or 2,000 cells/well (HCT116 and A549) in 96-well plates (TPP) for 24 h/37°C prior to the addition of examined agents. The non-cancerous cells, 3T3 and H9c2 cells, were cultured for 24 h/37°C in 96-well plates at a density of 10,000 cells/well, the medium was then changed to serum- and pyruvate-free DMEM (Sigma-Aldrich) and incubated with the cells for another 24 h/37°C. The cytotoxic effects of Bp4eT and its metabolites were studied at different concentrations after a 72 h/37°C incubation. In order to aid the dissolution of the lipophilic ligands, 0.1% dimethyl sulfoxide (v/v) (DMSO; Sigma-Aldrich) was present in the culture medium of all groups. At this concentration, DMSO had no effect on cellular proliferation or viability.
The viability of cells were determined using an MTT assay (Sigma-Aldrich) according to previously established methods. The optical density of soluble MTT was measured at λ = 570 nm, subtracting the λ = 690 nm background using a Tecan Infinite 200M plate reader (Tecan Group, Männedorf, Switzerland). The viability or proliferation of experimental groups was expressed as a percentage of the untreated controls (100%).
SigmaStat for Windows 3.5 (Systat Software, San Jose, CA, USA) statistical software package was utilized to analyze results. The data are expressed as the mean ± SD of a given number of experiments. Statistical significance was determined using a one-way ANOVA with a Bonferroni post-hoc test or Student’s t-test. The results were considered to be statistically significant when p < 0.05. The IC50 values were calculated using CalcuSyn 2.0 software (Biosoft, Cambridge, UK). Cell cycle analysis was evaluated using MultiCycle AV Software (Phoenix Flow Systems, San Diego, CA, USA).

[2] = tested on: labile iron pool of MCF-7 cells; assay: Calcein-AM assay, access to the labile iron pool; format: cell-based, human; set-up: Calcein fluorescence: unit not given here; conditions: 10 μM; for Calcein fluorescence: mean (průměr)
Protocol: These experiments were performed according to Glickstein et al. with slight modifications. The MCF-7 cells were seeded in 96-well plates (10,000 cells/well) and allowed to adhere for 24 h/37°C. Cells were loaded with iron using the cellular iron donor, ferric ammonium citrate (530 μg/mL), 24 h prior to the experiment, and then washed. To prevent potential interference, especially with regard to various trace elements, the medium was replaced with ADS buffer (prepared using Millipore water supplemented with 116 mM NaCl, 5.3 mM KCl, 1 mM CaCl2, 1.2 mM MgSO4, 1.13 mM NaH2PO4, 5 mM D-glucose, and 20 mM HEPES, pH 7.4). Cells were then loaded with 2 μM of the cell-permeable calcein green acetoxymethyl ester (calcein-AM; Molecular Probes, Oregon, USA) for 30 min/37°C and washed. Cellular esterases cleave the acetoxymethyl groups to form the cell membrane-impermeable compound, calcein green. The fluorescence of calcein green is quenched upon binding iron. The intracellular fluorescence (λex = 488 nm; λem = 530 nm) of calcein green was then followed as a function of time (10 min after the addition of 10 μM Bp4eT or its metabolites) at 37°C using the Tecan Infinite 200M plate reader. The iron chelation efficacy of the metabolites in cells was expressed as a percentage of the efficacy of the parent chelator, Bp4eT (100%).

`CCNC(=O)NN=C(c1ccccc1)c1ccccn1` [Z-Bp4eS, 2-benzoylpyridine 4-ethylsemicarbazone] was tested, and the “kaspáza 8, raw signal” value (caspase 8; 3 hodiny) was 1943.5 and 1086.5 and 1152 and 914.5, the “kaspáza 8, raw signal, průměry” value (caspase 8; 3 hodiny) was 1274.12 and the “kaspáza 8, % kontroly” value (caspase 8; 3 hodiny) was 95.08 % kontroly. The “kaspáza 8, signal / viabilita” value (caspase 8; 3 hodiny) was 19.9524 and 11.1542 and 11.8267 and 9.388, the “kaspáza 8, signal / viabilita, průměry” value (caspase 8; 3 hodiny) was 13.0804 and the “kaspáza 8, raw signal” value (caspase 8; 24 hodin) was 1728 and 1248 and 1958.5 and 1430.5. The “kaspáza 8, raw signal, průměry” value (caspase 8; 24 hodin) was 1591.25, the “kaspáza 8, % kontroly” value (caspase 8; 24 hodin) was 100.61 % kontroly and the “kaspáza 8, signal / viabilita” value (caspase 8; 24 hodin) was 17.3743 and 12.5481 and 19.6919 and 14.3831. For the same molecule, the “kaspáza 8, signal / viabilita, průměry” value (caspase 8; 24 hodin) was 15.9994, the “kaspáza 8, raw signal” value (caspase 8; 72 hodin) was 6689.5 and 5535.5 and 6778.5 and 5867 and the “kaspáza 8, raw signal, průměry” value (caspase 8; 72 hodin) was 6217.62. For the same molecule, the “kaspáza 8, % kontroly” value (caspase 8; 72 hodin) was 96.15 % kontroly, the “kaspáza 8, signal / viabilita” value (caspase 8; 72 hodin) was 71.5149 and 59.1779 and 72.4663 and 62.7218 and the “kaspáza 8, signal / viabilita, průměry” value (caspase 8; 72 hodin) was 66.4702. The “Therapeutic index, IC50 non-cancerous cells / IC50 neoplastic cells” value ([1]; 3T3/HCT116) was greater than 3.0, the “Therapeutic index, IC50 non-cancerous cells / IC50 neoplastic cells” value ([1]; H9c2/HCT116) was 1.0 and the IC50 ([1]; HCT116, 72 h/37°C, mean ± SD, n ≥ 4) was 337 ± 48.5 µM. For the same molecule, the “MTT, relative to control (0 = 100)” value ([1]; HCT116, 2 000 b/j, 1 μM, průměr (mean), sheet Z-Bp4eS) was 98.02, the “MTT, relative to control (0 = 100)” value ([1]; HCT116, 2 000 b/j, 1 μM, single experiment (date), sheet Z-Bp4eS) was 92.9248 and 94.2078 and 101.373 and 103.589 and the “MTT, relative to control (0 = 100)” value ([1]; HCT116, 2 000 b/j, 3 μM, průměr (mean), sheet Z-Bp4eS) was 95.04. The “MTT, relative to control (0 = 100)” value ([1]; HCT116, 2 000 b/j, 3 μM, single experiment (date), sheet Z-Bp4eS) was 90.3505 and 96.7506 and 97.8429 and 95.2259, the “MTT, relative to control (0 = 100)” value ([1]; HCT116, 2 000 b/j, 10 μM, průměr (mean), sheet Z-Bp4eS) was 92.27 and the “MTT, relative to control (0 = 100)” value ([1]; HCT116, 2 000 b/j, 10 μM, single experiment (date), sheet Z-Bp4eS) was 90.1105 and 89.2672 and 98.2602 and 91.4504. The “MTT, relative to control (0 = 100)” value ([1]; HCT116, 2 000 b/j, 30 μM, průměr (mean), sheet Z-Bp4eS) was 89.97, the “MTT, relative to control (0 = 100)” value ([1]; HCT116, 2 000 b/j, 30 μM, single experiment (date), sheet Z-Bp4eS) was 84.3315 and 84.8984 and 97.3042 and 93.3561 and the “MTT, relative to control (0 = 100)” value ([1]; HCT116, 2 000 b/j, 100 μM, průměr (mean), sheet Z-Bp4eS) was 81.81. For the same molecule, the “MTT, relative to control (0 = 100)” value ([1]; HCT116, 2 000 b/j, 100 μM, single experiment (date), sheet Z-Bp4eS) was 79.36 and 76.1483 and 84.5307 and 87.1986, the “MTT, relative to control (0 = 100)” value ([1]; HCT116, 2 000 b/j, 300 μM, průměr (mean), sheet Z-Bp4eS) was 62.81 and the “MTT, relative to control (0 = 100)” value ([1]; HCT116, 2 000 b/j, 300 μM, single experiment (date), sheet Z-Bp4eS) was 53.0737 and 67.0105 and 63.0816 and 68.093. For the same molecule, the “MTT, relative to control (0 = 100)” value ([1]; HCT116, 2 000 b/j, 1000 μM, průměr (mean), sheet Z-Bp4eS) was 14.99, the “MTT, relative to control (0 = 100)” value ([1]; HCT116, 2 000 b/j, 1000 μM, single experiment (date), sheet Z-Bp4eS) was 11.223 and 18.8694 and 13.6196 and 16.2655 and the IC50 ([1]; HCT116, 2 000 b/j, single experiment (date), sheet Z-Bp4eS) was 350 µM and 338 µM and 388 µM. For the same molecule, the IC50 ([1]; Homo sapiens, HCT-116, HCT116, 2 000 b/j, průměr (mean), sheet Z-Bp4eS) was 337 µM, the IC50 ([1]; Homo sapiens, HCT-116, HCT116, 2 000 b/j, single experiment (date), sheet Z-Bp4eS) was 272 µM and the Calcein fluorescence ([2]; 30 sec) was 11.525. It also gave a Calcein fluorescence ([2]; 60 sec) of 8.244, a Calcein fluorescence ([2]; 90 sec) of 15.042 and a Calcein fluorescence ([2]; 120 sec) of 10.528. For the same molecule, the Calcein fluorescence ([2]; 300 sec) was 1.225, the Calcein fluorescence ([2]; 600 sec) was 2.196 and the “Chelation efficacy: fluorescence of free calcein at t = 600 s as percentage of Bp4eT” value ([2]; MCF-7, mean of 6 experiments) was 0.9956%. The “Fluorescence of free calcein at 600 s as percentage of Bp4eT” value ([2]; MCF-7, single experiments) was 0% and 5.974%.
